Measurements reported in US10209240B2, “Predicting human developmental toxicity of pharmaceuticals using human stem-like cells and metabolomic ratios” (STEMINA BIOMARKER DISCOVERY, INC., priority 2012, dated 2019).
Like-named read-outs stand apart in the source and are kept apart here. Marks after values point to notes of the source that are not given here.

How the values were obtained:
Rodent = conditions: cited from earlier work; for Rodent in vivo test results: Embryotoxic: embryotoxic effect in the absence of teratogenic effects and maternal toxicity
[1] = cited from earlier work
WA09 hES cells [2] = tested on: WA09 hES cells
Description: Phase I hES Cell Compound Exposure. hES cells were treated with a test compound at a single concentration equivalent to the compound's published therapeutic Cmax. […] This was done to ensure that enough cells were present at the time of sample collection to provide a signal for LC-HRMS analysis. For test compound exposure, all compound stock solutions, with the exception of valproic acid, were made with DMSO (Sigma-Aldrich). […] Each 96-well plate included media controls with and without test compound, 0.1% DMSO solvent control cells and cells exposed to a single concentration of eight different test compounds (FIG. 1A). Media controls were included on each plate to assess the impact of test compound on the sample matrix. hES cells were exposed to the test compound for 72 hours, with media and test compound replacement every 24 hours. Cells were monitored throughout the treatment period to ensure that no differentiation was occurring. After 72 hours of treatment, the spent media from the final 24-hour treatment period was collected and added to acetonitrile (Sigma-Aldrich, final acetonitrile concentration 40%), to halt metabolic processes and precipitate proteins from solution. Individual wells from each 96-well plate were collected and analyzed as separate samples. These samples were then stored at −80° C. until prepared for LC-HRMS analysis. Cell viability was assessed using the CellTiter-Fluor Cell Viability Assay as per the manufacturer's instructions (Promega, Madison, Wis.). Quality control parameters were set such that if the coefficient of variation (CV) for the viability relative fluorescent units (RFU) of the 6 cellular samples in a treatment exceeded 10% and no outliers were identified using the Grubb's test (see the worldwide web at graphpad.com/quickcalcs/Grubbs1.cfm), analysis was halted for that compound and the cell culture experiment was repeated. If outliers were present, the outlier sample was removed from analysis. If the CV for the DMSO control cell samples on a plate were outside of the quality control parameters, the entire plate was repeated. hES cell exposure to each of the 23 compounds was replicated a total of nine times.
(§1) Phase 2 hES Cell Compound Exposure. […] The standard compound exposure levels used for most compounds were nine, 3-fold dilutions ranging from 0.04 μM-300 μM (FIG. 1B). […] The stock solution was diluted 1:1000 in mTeSR1 media and subsequent dilutions were performed in mTeSR1 containing 0.1% DMSO such that the final concentration of DMSO was 0.1% in all treatments. hES cells were treated for 72 hours and spent media from the last 24-hour treatment period was collected and added to acetonitrile containing ^13C6 labeled arginine (Cambridge Isotope Laboratories, Andover, Md.) as described under Phase 1. Spent media samples were stored at −80° C. until prepared for LC-HRMS analysis. Cell viability was assessed using the CellTiter-Fluor Cell Viability Assay. A quality control step was included with criteria that the CV of the measured viability RFU of the DMSO control cells could not exceed 10% for a plate to undergo LC-HRMS analysis. A dose response curve was fit to the reference treatment (0.1% DMSO treated control cells) normalized data (Viability RFUTrt X/Viability RFUDMSO) using a four-parameter log-logistic model with the R package “drc” (Ritz and Streibig, 2005, J Statistical Software; 12:1-22).
Phase 2 Prediction of Developmental Toxicity Potential. […] FIG. 2 illustrates how the assay is applied in this situation. A test compound is considered to be teratogenic at the exposure level where the o/c ratio exceeds the teratogenicity threshold (red box, FIG. 2).

WA09 hES cells [3] = experiment: Phase 2 targeted biomarker assay, ornithine/cystine ratio, 9-point dose response
Source text: Undifferentiated hES Cell Line Maintenance (Phases 1 and 2). WA09 hES cells were obtained from the WiCell Research Institute (Madison, Wis.) and were maintained in feeder free conditions using mTeSR1 media (StemCell Technologies, Inc., Vancouver, BC, Canada) on hESC-qualified Matrigel (BD Biosciences, San Jose, Calif.) coated 6-well plates. To maintain the undifferentiated stem cell population, differentiated colonies were removed daily through aspiration and media was replaced. Additionally, the hES cells were only used in experiments up to passage 40 and were karyotyped approximately every 10 passages to minimize and monitor the potential for genetic instability. hES cells were passaged at 90-95% confluency (approximately every 7 days) using Versene (Life Technologies, Grand Island, N.Y.). Cell cultures were maintained at 37° C. under 5% CO2.
96-well hES Cell Plating (Phases 1 and 2). All experimental treatments were carried out in 96-well plates. To minimize plating variability and increase reproducibility, hES cells were plated as a single cell suspension and maintained in an undifferentiated state during compound exposure. Prior to plating in the 96-well plates, hES cells were removed from a 6-well plate using TrypLE (Life Technologies). The cells were washed with DMEM/F12 (Life Technologies) and resuspended in mTeSR1 containing 10 μM Y27632 Rho-associated kinase (ROCK) inhibitor (Merck KGaA/Calbiochem, Darmstadt, Germany). The ROCK inhibitor is added to the plating media to increase plating efficiency by decreasing dissociation-induced apoptosis. The inner 60 wells of hESC-qualified Matrigel coated 96-well plates were seeded at a density of 100,000 cells per well. The outer wells of the plate contained an equal volume media to minimize differences in humidity across the plate. Compound exposure began 24 hours after plating.
as §1
Sample Preparation (Phases 1 and 2). High molecular weight constituents (>10 KDa) of the spent media samples were removed using a Millipore Multiscreen Ultracel-10 filter plate (EMD Millipore, Billerica, Mass.). Prior to sample filtration, the filter plate was washed with 0.1% NaOH to remove a known contaminant polymer. The plate was then rinsed twice with HPLC-grade water to remove residual polymers and NaOH. Spent media samples were added to the washed filter plate. In Phase 1, samples were spiked with ^13C6 labeled arginine. Samples were centrifuged at 2,000×g at 4° C. for 200 minutes. The filtrate was collected and concentrated overnight in a Savant High Capacity Speedvac Plus Concentrator.

Rabbit = conditions: cited from earlier work
hES cells [4] = experiment: devTOX computational model predictions (Version 2.0, Version 2.1) from hES cell metabolomics; assay type: cell-based, human; conditions: single dose per treatment (Dose column)
Source text: The selection process weighted the predictive capacity of a feature, overall intensity, and peak shape to identify very well behaved features/metabolites that could be measured by targeted LC-MS or even by other detection systems.
(§2) This simplified model is based on a ratio of the reference treatment (DMSO) normalized values of ADMA and cystine.

hES cells [5] = experiment: ADMA/cystine ratio simplified predictive model in hES cell spent media; assay type: cell-based, human; conditions: single dose per treatment; ratios less than 0.9 indicate teratogenicity
Source text: as §2
The X-axis is the reference normalized ratio of ADMA/Cystine. The y-axis is the training set of pharmaceuticals. Grey color with triangle glyphs represents teratogens and black color with circle glyphs represents non-teratogens. Each glyph point represents the media value of an independent experimental block (6 reps per block). The crosshair glyphs mark the sample medians. In FIG. 9, grey vertical line is threshold of teratogenicity, grey horizontal lines are the median absolute deviations, and black vertical line designates 1.0. The arrows at the bottom indicate the values used for differentiation of teratogens and nonteratogens, utilizing a cut off of 0.9 (grey line).

Humans = conditions: cited from earlier work; for Humans (known human developmental toxicity): training and test set; for Known Effect: validation and test set treatments of Example 2
[6] = summarized from TERIS and Briggs et al. 2011, cited from earlier work; for Preclinical in vivo developmental effects: application set compounds
rat whole embryo = conditions: cited from earlier work
[7] = tested on: mouse embryonic stem cell; conditions: cited from earlier work
[8] = test set, teratogenicity potential scored against therapeutic Cmax
[9] = application set, peak plasma concentration in humans
[10] = application set, made using the therapeutic Cmax when available
[11] = training set, therapeutic peak plasma in vivo concentration, human
[12] = training and test set, weak/moderate and strong teratogens both labeled teratogen

Structure (SMILES): Nc1nc(N)c2nc(CNc3ccc(C(=O)N[C@@H](CCC(=O)O)C(=O)O)cc3)cnc2n1 [Aminopterin]
- Rodent prediction (Rodent; training and test set): TER
- Cmax ([1]; test set, therapeutic peak plasma in vivo concentration, human): 300 nM
- Teratogenicity Potential (μM) Cell Viability (WA09 hES cells [2]; test set, interpolated concentration where cell viability dose response curve crosses teratogenicity threshold 0.88, 72 hours): 0.01 µM
- Viability Prediction (WA09 hES cells [2]; [8]): TER
- Teratogenicity Potential (μM) O/C Ratio (WA09 hES cells [3]; test set, interpolated concentration where o/c ratio dose response curve crosses teratogenicity threshold 0.88, 72 hours): 0.01 µM
- O/C Ratio Prediction (WA09 hES cells [3]; [8]): TER
- Targeted Biomarker Assay prediction (WA09 hES cells [3]; training and test set, o/c ratio scored against therapeutic Cmax): TER
- Rabbit prediction (Rabbit; training and test set): TER
- Model Predictions Version 2.0 (hES cells [4]): Ter
- Model Predictions Version 2.1 (hES cells [4]): Ter
- Model Predictions ADMA/Cystine (hES cells [5]): Ter
- Humans (known human developmental toxicity) (Humans): TER
- Known Effect (Humans): Ter
- Preclinical in vivo and known human developmental effects ([6]; test set compounds): Craniofacial, limb, skeletal,

Structure (SMILES): CN(CCOc1ccc(CC2SC(=O)NC2=O)cc1)c1ccccn1 (stereo not shown) [Rosiglitazone]
- Rodent prediction (Rodent; application set): TER
- Rodent in vivo test results: Embryotoxic (Rodent; application set): +
- Cmax [1, 9]: 1700 nM
- Teratogenicity Potential (μM) Cell Viability (WA09 hES cells [2]; human, 72 h): 21.8 µM
- WEC prediction (rat whole embryo; application set): NON^h
- Targeted Biomarker Assay prediction (WA09 hES cells [3]; [10]): NON
- Teratogenicity Potential (μM) O/C Ratio (WA09 hES cells [3]; human, 72 h): 18.9 µM
- Rabbit prediction (Rabbit; application set): TER
- Preclinical in vivo developmental effects [6]: Embryo toxicity^c

Structure (SMILES): NC(=O)c1ccc(N)nc1 [6-Aminonicotinamide]
- Rodent prediction (Rodent; application set): TER
- Rodent in vivo test results: Teratogenic (Rodent; application set, structural malformations in the absence of maternal toxicity): +^d
- Teratogenicity Potential (μM) Cell Viability (WA09 hES cells [2]; application set, interpolated concentration where cell viability dose response curve crosses teratogenicity threshold 0.88, 72 hours): 24.5 µM
- WEC prediction (rat whole embryo; application set): TER^d
- Teratogenicity Potential (μM) O/C Ratio (WA09 hES cells [3]; application set, interpolated concentration where o/c ratio dose response curve crosses teratogenicity threshold 0.88, 72 hours): <0.04 µM
- Targeted Biomarker Assay prediction (WA09 hES cells [3]; [10]): TER
- Rabbit prediction (Rabbit; application set): TER
- mEST prediction ([7]; application set): TER^c
- Preclinical in vivo developmental effects [6]: Craniofacial

Structure (SMILES): N[C@@H](Cc1cc(I)c(Oc2cc(I)c(O)c(I)c2)c(I)c1)C(=O)O [Levothyroxine]
- Rodent prediction (Rodent; training and test set): NON
- Cmax [1, 11]: 140 nM
- Viability Prediction (WA09 hES cells [2]): NON
- Teratogenicity Potential (μM) Cell Viability (WA09 hES cells [2]; human, 72 h): >300 µM
- O/C Ratio Prediction (WA09 hES cells [3]): NON
- Targeted Biomarker Assay prediction (WA09 hES cells [3]): NON
- Teratogenicity Potential (μM) O/C Ratio (WA09 hES cells [3]; human, 72 h): 43.5 µM
- Rabbit prediction (Rabbit; training and test set): NON
- Model Predictions Version 2.0 (hES cells [4]): Ter
- Model Predictions Version 2.1 (hES cells [4]): Non
- Model Predictions ADMA/Cystine (hES cells [5]): Non
- Humans (known human developmental toxicity) (Humans): NON
- Known Effect (Humans): Non
- Preclinical in vivo and known human developmental effects ([6]; training set compounds): None

Structure (SMILES): CNCCC(Oc1ccc(C(F)(F)F)cc1)c1ccccc1 (stereo not shown) [Fluoxetine]
- Rodent prediction (Rodent; application set): TER
- Rodent in vivo test results: Embryotoxic (Rodent; application set): +
- Cmax [1, 9]: 40 nM
- Teratogenicity Potential (μM) Cell Viability (WA09 hES cells [2]; human, 72 h): 23 µM
- WEC prediction (rat whole embryo; application set): NON^f,g
- Targeted Biomarker Assay prediction (WA09 hES cells [3]): NON
- Teratogenicity Potential (μM) O/C Ratio (WA09 hES cells [3]; human, 72 h): 25.1 µM
- Rabbit prediction (Rabbit; application set): NON
- mEST prediction ([7]; application set): TER^e
- Preclinical in vivo developmental effects [6]: Embryo toxicity^c

Structure (SMILES): CS(=O)(=O)OCCCCOS(C)(=O)=O [Busulfan]
- Rodent prediction (Rodent; training and test set): TER
- Cmax [1, 11]: 49600 nM
- Viability Prediction (WA09 hES cells [2]): TER
- Cytotoxicity at the Cmax exposure level (WA09 hES cells [2]; human, 72 h): greater than 30%
- Teratogenicity Potential (μM) Cell Viability (WA09 hES cells [2]; human, 72 h): 3 µM
- WEC prediction (rat whole embryo; [12]): TER^j
- O/C Ratio Prediction (WA09 hES cells [3]): TER
- Targeted Biomarker Assay prediction (WA09 hES cells [3]): TER
- Teratogenicity Potential (μM) O/C Ratio (WA09 hES cells [3]; human, 72 h): 0.6 µM
- Rabbit prediction (Rabbit; training and test set): TER
- Model Predictions Version 2.0 (hES cells [4]): Ter
- Model Predictions Version 2.1 (hES cells [4]): Ter
- Model Predictions ADMA/Cystine (hES cells [5]): Ter
- Humans (known human developmental toxicity) (Humans): TER
- Known Effect (Humans): Ter
- mEST prediction [7, 12]: TER^i
- Preclinical in vivo and known human developmental effects ([6]; training set compounds): Craniofacial, limb, embryo
